Columns and labels:
[1] = system: Pyricularia oryzae; assay: microbe, parasite or virus in culture; format: cell-based; settings: 168 h, read-out: control compared to the untreated check
[2] = system: Phytophthora infestans; assay: microbe, parasite or virus in culture; format: cell-based; settings: 168 h, read-out: control compared to the untreated check
[3] = system: Botrytis cinerea; assay: Botrytis cinerea test on tomato, preventive, greenhouse; format: in vivo; settings: preventive spray on bean/chili plants (heading: tomato), inoculated one day after treatment, read-out: control (efficacy, disease severity) compared to the untreated check
[4] = system: Alternaria solani; assay: Alternaria solani test in tomato, preventive, greenhouse; format: in vivo; settings: preventive spray on tomato, inoculated one day after treatment, read-out: control (efficacy, disease severity) compared to the untreated check
Protocol: The respective compound was dissolved in 2% dimethyl sulfoxide/acetone and then mixed with water containing an emulsifier to the calibrated spray volume of 30 mL. Each spray solution was poured into a spray bottle for further application.
To test the preventive activity of a compound, healthy young tomato plants, raised in the greenhouse, were sprayed with the active compound preparation at the stated application rate inside the spray cabinets using hollow cone nozzles. One day after treatment, the plants were inoculated with a spore suspension containing 0.24×10^6 Alternaria solani inoculum. The inoculated plants were then kept in a greenhouse chamber at 22-24° C. temperature and 90-95% relative humidity for disease expression.
A visual assessment of the compound's performance was carried out by rating the disease severity (0 100% scale) on treated plants 3, 7, 10 and 15 days after application. Efficacy (% control) of the compound was calculated by comparing the disease rating in the treatment with the one of the untreated control. The treated plants were also assessed for plant damage by recording symptoms like necrosis, chlorosis and stunting.

[5] = system: Phytophthora infestans; assay: whole plant or invertebrate; format: in vivo, Phytophthora infestans on tomato; settings: in Solanum lycopersicum, read-out: control (efficacy, disease severity) compared to the untreated check
[6] = system: Venturia Inequalis; assay: Venturia inequalis (VENTIN) spore growth inhibition in liquid medium, 96-well microtiter plate, OD 600; format: cell-based; settings: spore suspension in PDB liquid medium, 18° C., 15-18 days, OD at 600, read-out: control compared to the untreated check
Protocol: Potato dextrose (PDB) liquid medium containing a VENTIN (10^5 spores/ml) spore suspension was prepared. For the inhibition assay, each test compound was solved in dimethyl sulfoxide. 100 μl of the test compound in media-solution was added to a 96-well microtiter plate, consequently, the same volume (100 μl) of spore suspension was added to the well making the final test concentrations and the treated plate was incubated at 18° C. for 15-18 days. The growth inhibition was evaluated by measuring the OD at 600. Percent inhibition was calculated with the below formula: […]

[7] = system: Botrytis cinerea; assay: Botrytis cinerea (gray mold) mycelial radial growth on potato dextrose agar; format: cell-based; settings: 168 h, 22° C., seven days, read-out: control compared to the untreated check
In short: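 Compounds in 0.3% DMSO were mixed into potato dextrose agar, and plates were seeded with 5 mm mycelial discs from actively growing virulent culture. After seven days at 22 °C and 90% relative humidity, radial growth was measured relative to untreated control.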

[8] = system: Parastagonospora nodorum; assay: Parastagonospora nodorum (PARANO) spore growth inhibition in liquid medium, 96-well microtiter plate, OD 600; format: cell-based; settings: spore suspension in PDB liquid medium, 18° C., 5-6 days, OD at 600, read-out: control compared to the untreated check
In short: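 Read-out is percent growth inhibition from OD at 600 after 5-6 days at 18° C. Compounds, dissolved in DMSO, were diluted in potato dextrose broth and combined in equal volume with a 10^5 spores/ml suspension of PARANO.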

[9] = system: Colletotrichum capsici; assay: Colletotrichum capsici (anthracnose) mycelial radial growth on potato dextrose agar; format: cell-based; settings: Colletotrichum truncatum, 168 h, 25° C., seven days, read-out: control compared to the untreated check
In short: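 Compounds in 0.3% DMSO were mixed into potato dextrose agar, and each plate was seeded with a 5 mm mycelial disc from an actively growing culture. Plates were incubated at 25° C and 60% relative humidity for seven days. Radial growth was compared with untreated control.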

[10] = system: Botrytis cinerea; assay: Botrytis cinerea liq. (BOTRCI) spore growth inhibition in liquid medium, 96-well microtiter plate, OD 405 nm; format: cell-based; settings: spore suspension in YBA liquid medium, 22° C., 5-6 days, OD at 405 nm, read-out: control compared to the untreated check
In short: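 Spore suspension of B. cinerea (10^4 spores/ml) in YBA liquid medium mixed 1:1 with compound diluted from DMSO. Incubated at 22° C. for 5-6 days. Growth read as OD 405 nm; percent inhibition derived from treatment, untreated-control and blank readings.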

[11] = system: Phakopsora pachyrhizi; assay: Phakopsora pachyrhizi test on soybean, preventive, greenhouse; format: in vivo; settings: preventive spray on soybean, inoculated one day after treatment, read-out: control (efficacy, disease severity) compared to the untreated check
In short: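 Greenhouse-grown young soybean plants were sprayed with compound (2% DMSO/acetone, emulsifier in water) at the stated rate. One day later they were inoculated with 2×10^5 P. pachyrhizi inoculum and held at 22-24 °C, 80-90% relative humidity for disease development.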

CC(C)(Cc1ccccc1)NC(=O)c1cnc2ccsc2c1 [Compound 30, N-(2-methyl-1-phenylpropan-2-yl)thieno[3,2-b] pyridine-6-carboxamide]
≥ 70%: inhibition of growth at 300 ppm [1] | inhibition of growth at 300 ppm [2] | pest or weed control at 500 ppm [3] | pest or weed control at 500 ppm [4]

C=C(C)CC(C)(COc1ccc(F)cc1)NC(=O)c1cc2cc[nH]c2nc1C (centres unmarked) [Compound 128, N-(1-(4-fluorophenoxy)-2,4-dimethylpent-4-en-2-yl)-6-methyl-1H-pyrrolo[2,3-b]pyridine-5-carboxamide]
≥ 70%: pest or weed control at 500 ppm [3] | pest or weed control at 500 ppm [4]

CC(C)CC(C)(Cc1ccccc1)NC(=O)c1cnc2cc[nH]c2c1 (centres unmarked) [Compound 73, N-(2,4-dimethyl-1-phenylpentan-2-yl)-1H-pyrrolo[3,2-b]pyridine-6-carboxamide]
≥ 70%: pest or weed control at 500 ppm [5] | inhibition of growth at 300 ppm [6] | inhibition of growth at 300 ppm [7] | inhibition of growth at 300 ppm [8] | inhibition of growth at 300 ppm [2] | inhibition of growth at 300 ppm [9] | inhibition of growth at 300 ppm [10] | pest or weed control at 500 ppm [3] | pest or weed control at 500 ppm [4]

Cn1cc(Cl)c2cc(C(=O)NC(C)(C)COC(=O)c3cccc(F)c3)cnc21 [Compound 153, 2-(3-chloro-1-methyl-1H-pyrrolo[2,3-b]pyridine-5-carboxamido)-2-methylpropyl 3-fluorobenzoate]
≥ 70%: inhibition of growth at 300 ppm [8] | pest or weed control at 500 ppm [3] | pest or weed control at 500 ppm [4]

CCC(O)(CC)C(NC(=O)c1cnc2ccsc2c1)c1ccc(F)cc1 (centres unmarked) [Compound 132, N-(2-ethyl-1-(4-fluorophenyl)-2-hydroxybutyl)thieno [3,2-b]pyridine-6-carboxamide]
≥ 70%: inhibition of growth at 300 ppm [6] | pest or weed control at 500 ppm [4] | pest or weed control at 500 ppm [11]

CC(C)(NC(=O)c1cnc2ccsc2c1)C(O)c1ccccc1 (centres unmarked) [Compound 118, N-(1-hydroxy-2-methyl-1-phenylpropan-2-yl)thieno[3,2-b] pyridine-6-carboxamide]
≥ 70%: inhibition of growth at 300 ppm [7] | inhibition of growth at 300 ppm [8] | inhibition of growth at 300 ppm [10] | pest or weed control at 500 ppm [4]

Cn1ccc2cc(C(=O)NC(C)(C)Cc3ccc(OC(F)(F)F)cc3)cnc21 [Compound 19, 1-methyl-N-(2-methyl-1-(4-(trifluoromethoxy)phenyl)propan-2-yl)-1H-pyrrolo[2,3-b]pyridine-5-carboxamide]
≥ 70%: pest or weed control at 500 ppm [3] | pest or weed control at 500 ppm [4] | pest or weed control at 500 ppm [11]

Cc1ccccc1C(=O)OCC(C)(C)NC(=O)c1cnc2c(c1)CCCC2 [Compound 151, 2-methyl-2-(5,6,7,8-tetrahydroquinoline-3-carboxamido)propyl 2-methylbenzoate]
≥ 70%: inhibition of growth at 300 ppm [8] | pest or weed control at 500 ppm [3] | pest or weed control at 500 ppm [4] | pest or weed control at 500 ppm [11]

CC(Cc1ccccc1)C(C)(C)NC(=O)c1cnc2c(ccn2C)c1 (centres unmarked) [Compound 80, N-(2,3-dimethyl-4-phenylbutan-2-yl)-1-methyl-1H-pyrrolo[2,3-b]pyridine-5-carboxamide]
≥ 70%: pest or weed control at 500 ppm [5] | inhibition of growth at 300 ppm [6] | inhibition of growth at 300 ppm [8] | inhibition of growth at 300 ppm [9] | pest or weed control at 500 ppm [4]

CC(c1ccccc1F)C(C)(C)NC(=O)c1cnc2c(ccn2C)c1 (centres unmarked) [Compound 3, N-(3-(2-fluorophenyl)-2-methylbutan-2-yl)-1-methyl-1H-pyrrolo[2,3-b]pyridine-5-carboxamide]
≥ 70%: pest or weed control at 500 ppm [5] | inhibition of growth at 300 ppm [1] | inhibition of growth at 300 ppm [9] | pest or weed control at 500 ppm [4]
